According to patent publication US4534980A, “Antiinflammatory and antipyretic cream” (Hokuriku Pharmaceutical Co., Ltd., priority 1984, dated 1985):

How the values were obtained:
[1] = system: carrageenin induced paw edema; test: Antiinflammatory effect on carrageenin induced paw edema (Experiments 3, 8); type: in vivo, Wistar male rats; details: inhibition rate in oral administration = 1.00
Experimental: The antiinflammatory effect of the test compositions in Experiment 1 was determined by an effect on carrageenin induced paw edema. The experiment was performed using 8 Wistar male rats weighing approximately 170 g per one group. After previously measuring the volume of left hind paw, 50 mg each of the test compositions (stored at room temperature for one month after the preparation) was applied twice, left hind paw of the rat, 2 hours and 1 hour before injection of an inflammatory agent. As the inflammatory agent, 0.1 ml of a 1% carrageenin solution was subcutaneously injected at the left hind paw. The volume of the left hind paw was measured 3 hours after and a swelling was determined based on the volume before injecting the inflammatory agent. A group in which no test composition was applied was made a control group and the inhibition rate was calculated based thereon as follows. [formula]
The antiinfammatory effect was examined with the test compositions of Experiment 7, in a manner similar to Experiment 3.

[2] = system: carrageenin induced paw edema; details: 5 mg/kg, Folia Pharmacologica Japonica vol. 70, page 543 (1974); cited from earlier work

CC(C(=O)O)c1cccc(C(=O)c2ccccc2)c1 (centres unmarked) [Ketoprofen]
Potency Ratio (Table 3) [1]: 1.00 | Inhibition Rate, Oral Administration (Table 3) [2]: 45.9%
